One experiment concerns the target GCN2 kinase (Homo sapiens (Human), UniProt Q9P2K8). Briefly: GCN2 Enzyme Inhibition Assay (Transcreener ADP2 fluorescence polarization). Particulars: 280 μM ATP, 200 μM (RS)7 peptide, 4 nM GCN2, 25° C.; for Ki: Ki(app). It is filed as biochemical. The gist of the method:
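Transcreener ADP2 fluorescence polarization detection of ADP from 4 nM GCN2 with (RS)7 substrate in 25 mM Tris-HCl pH 7.5, 50 mM NaCl, 10 mM MgCl2, 1 mM DTT. Compound pre-incubated with enzyme 10 min at 25 °C; reaction started by ATP, run 1 h at 25 °C. IC50 and Ki(app) by tight-binding fit.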

Experiment [1] addresses intracellular GCN2 (phosphorylation of the GCN2 substrate eIF2α) (Homo sapiens (Human), UniProt Q9P2K8). Kind of experiment: GCN2 Cellular Inhibition Assay (AlphaScreen SureFire P-eIF2α Ser51, borrelidin-treated U2OS cells). Type of experiment: cell-based. Particulars: 10 μM borrelidin, 1 h. The gist of the method: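 U2OS cells adhered overnight, then given compound (top 40 μM, 4-fold serial dilutions) plus 10 μM borrelidin for 1 h at 37 °C. Lysates assayed for eIF2α phospho-Ser51 by AlphaScreen SureFire; % inhibition versus borrelidin-only wells.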

The mark [2] stands for this setting: phosphorylated eIF2α Ser51, read-out: GCN2 Biomarker (IC50).

Like-named read-outs stand apart in the source and are kept apart here. Some results are limits rather than exact numbers.

Sequence of GCN2 kinase (Q9P2K8 whole entry): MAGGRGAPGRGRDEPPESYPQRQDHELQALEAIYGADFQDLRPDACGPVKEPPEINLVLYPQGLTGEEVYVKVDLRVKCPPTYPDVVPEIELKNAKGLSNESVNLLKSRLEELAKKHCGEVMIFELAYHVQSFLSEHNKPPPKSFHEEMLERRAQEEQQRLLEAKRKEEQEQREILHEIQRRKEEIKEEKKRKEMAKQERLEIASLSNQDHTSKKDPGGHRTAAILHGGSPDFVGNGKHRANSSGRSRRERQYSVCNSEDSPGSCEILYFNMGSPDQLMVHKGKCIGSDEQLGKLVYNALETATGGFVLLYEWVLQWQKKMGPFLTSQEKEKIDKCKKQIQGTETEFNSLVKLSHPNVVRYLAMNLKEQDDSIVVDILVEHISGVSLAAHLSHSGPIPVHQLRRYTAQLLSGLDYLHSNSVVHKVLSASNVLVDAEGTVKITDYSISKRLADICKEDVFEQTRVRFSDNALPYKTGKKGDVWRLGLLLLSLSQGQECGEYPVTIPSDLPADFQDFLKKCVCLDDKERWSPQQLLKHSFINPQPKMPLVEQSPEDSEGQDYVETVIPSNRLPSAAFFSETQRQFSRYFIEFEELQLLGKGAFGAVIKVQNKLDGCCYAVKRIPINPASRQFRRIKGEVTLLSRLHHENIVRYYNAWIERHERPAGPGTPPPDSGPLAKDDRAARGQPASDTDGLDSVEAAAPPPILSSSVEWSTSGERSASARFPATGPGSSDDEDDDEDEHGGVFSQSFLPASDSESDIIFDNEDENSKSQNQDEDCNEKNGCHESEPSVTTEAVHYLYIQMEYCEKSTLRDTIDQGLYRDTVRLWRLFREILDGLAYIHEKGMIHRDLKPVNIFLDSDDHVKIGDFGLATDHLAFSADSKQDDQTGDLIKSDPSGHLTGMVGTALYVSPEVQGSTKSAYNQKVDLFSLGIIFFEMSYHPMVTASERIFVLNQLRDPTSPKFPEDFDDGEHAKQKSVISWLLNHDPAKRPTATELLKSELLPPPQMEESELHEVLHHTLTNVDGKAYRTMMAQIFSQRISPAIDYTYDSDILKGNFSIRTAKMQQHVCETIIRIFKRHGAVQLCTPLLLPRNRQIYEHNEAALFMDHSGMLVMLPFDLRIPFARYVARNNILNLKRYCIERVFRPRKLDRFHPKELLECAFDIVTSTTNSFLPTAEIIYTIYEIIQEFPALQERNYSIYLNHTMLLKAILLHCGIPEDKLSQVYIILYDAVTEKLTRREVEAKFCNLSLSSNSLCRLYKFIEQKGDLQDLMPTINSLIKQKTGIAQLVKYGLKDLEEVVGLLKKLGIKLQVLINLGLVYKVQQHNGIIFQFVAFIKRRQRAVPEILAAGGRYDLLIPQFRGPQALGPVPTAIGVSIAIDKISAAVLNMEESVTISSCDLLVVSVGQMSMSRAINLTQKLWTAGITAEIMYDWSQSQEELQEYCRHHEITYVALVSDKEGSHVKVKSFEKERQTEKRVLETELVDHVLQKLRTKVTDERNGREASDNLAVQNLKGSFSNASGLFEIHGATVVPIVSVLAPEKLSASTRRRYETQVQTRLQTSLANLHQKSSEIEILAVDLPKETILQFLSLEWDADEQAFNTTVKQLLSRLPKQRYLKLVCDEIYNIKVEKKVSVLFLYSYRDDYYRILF
Sequence of intracellular GCN2 (phosphorylation of the GCN2 substrate eIF2α) (Q9P2K8 whole entry): as above

For `C[C@@H]1C[C@H](N=S(C)(C)=O)CN(c2ccnc(-c3cnc4ccc(Br)cn34)n2)C1` [I-289, (((3 S,5R)-1-(2-(6-bromoimidazo[1,2-a]pyridin-3-yl)pyrimidin-4-yl)-5-methylpiperidin-3-yl)imino)dimethyl-λ6-sulfanone], the IC50 was 10 to 100 nM on GCN2 kinase and 500 to 5000 nM in experiment [1] (setting [2]).

With `CC1C(c2cn[nH]c2)N(C2COC2)CCN1c1ccnc(-c2cnc3ccc(C(F)(F)F)cn23)n1` (centres unmarked) [I-322, 4-[2-methyl-4-(oxetan-3-yl)-3-(1H-pyrazol-4-yl)piperazin-1-yl]-2-[6-(trifluoromethyl)imidazo[1,2-a]pyridin-3-yl]pyrimidine], the IC50 was 10 to 100 nM on GCN2 kinase and below 500 nM in experiment [1] (setting [2]).

Take `O=C(c1cn[nH]n1)N1CCN(c2ccnc(-c3cnc4ccc(C(F)(F)F)cn34)n2)CC1c1cn[nH]c1` (centres unmarked) [I-442, (2-(1H-pyrazol-4-yl)-4-(2-(6-(trifluoromethyl)imidazo[1,2-a]pyridin-3-yl)pyrimidin-4-yl)piperazin-1-yl)(2H-1,2,3-triazol-4-yl)methanone]: the IC50 against GCN2 kinase was 10 to 100 nM; in experiment [1] (setting [2]), 500 to 5000 nM.

For the compound `C[C@H]1CN(c2nccc(-c3cnc4cc(F)c(Cl)cn34)n2)C[C@@H](c2cn[nH]c2)O1` [I-270, (2S,6R)-4-(4-(6-chloro-7-fluoroimidazo[1,2-a]pyridin-3-yl)pyrimidin-2-yl)-2-methyl-6-(1H-pyrazol-4-yl)morpholine], the IC50 against GCN2 kinase was below 10 nM; in experiment [1] (setting [2]), below 500 nM.

Take `C[C@@H]1C[C@@H](c2cn[nH]c2)CN(c2nccc(-c3cnc4ccc(N5CC(F)(F)C5)cn34)n2)C1` [I-261, 6-(3,3-difluoroazetidin-1-yl)-3-(2-((3R,5S)-3-methyl-5-(1H-pyrazol-4-yl)piperidin-1-yl)pyrimidin-4-yl)imidazo[1,2-a]pyridine]: the IC50 against GCN2 kinase is below 10 nM; in experiment [1] (setting [2]), below 500 nM.

As to `Cc1cc(-c2cnc3ccc(Cl)cn23)nc(N2C[C@@H](c3c[nH]nc3C)O[C@@H](C)C2)n1` [I-221, (2S,6R)-4-(4-(6-chloroimidazo[1,2-a]pyridin-3-yl)-6-methylpyrimidin-2-yl)-2-methyl-6-(5-methyl-1H-pyrazol-4-yl)morpholine], the IC50 on GCN2 kinase is below 10 nM; in experiment [1] (setting [2]), below 500 nM.

As to `CS(=O)(=O)NC[C@@H]1CN(c2nc(-c3cnc4ccc(C(F)(F)F)cn34)cs2)CCO1` [I-111, (S)—N-((4-(4-(6-(trifluoromethyl)imidazo[1,2-a]pyridin-3-yl)thiazol-2-yl)morpholin-2-yl)methyl)methanesulfonamide], the Ki at GCN2 kinase is 10 to 100 nM. Besides, in experiment [1] (setting [2]), the IC50 lay in the range of 500 to 5000 nM.

As to `Cc1noc([C@H]2CN(c3ccnc(-c4cnc5cc(F)c(Cl)cn45)n3)C[C@@H](C)O2)n1` (relative stereo) [I-56, 6-Chloro-7-fluoro-3-{4-[cis-2-methyl-6-(3-methyl-[1,2,4]oxadiazol-5-yl)-morpholin-4-yl]-pyrimidin-2-yl}-imidazo[1,2-a]pyridine], the Ki on GCN2 kinase was 10 to 100 nM. The compound also registered an IC50 in experiment [1] (GCN2 Biomarker (IC50), phosphorylated eIF2α Ser51) of 500 to 5000 nM.

Consider `NC(=O)C1CN(c2ccnc(-c3cnc4ccc(C(F)(F)F)cn34)n2)CC(F)(F)C1` (centres unmarked) [I-202, 5,5-Difluoro-1-[2-(6-trifluoromethyl-imidazo[1,2-a]pyridin-3-yl)-pyrimidin-4-yl]-piperidine-3-carboxylic acid amide], for which, on GCN2 kinase, the IC50 is below 10 nM and the Ki was below 10 nM. Moreover, in experiment [1] (setting [2]), the IC50 is below 500 nM.

Regarding `FC(F)c1ccc2ncc(-c3ccnc(N4CCOC(c5cn[nH]c5)C4)n3)n2c1` (centres unmarked) [I-18, 4-[4-[6-(Difluoromethyl)imidazo[1,2-a]pyridin-3-yl]pyrimidin-2-yl]-2-(1H-pyrazol-4-yl)morpholine], the Ki on GCN2 kinase is below 10 nM. In experiment [1] (setting [2]), the IC50 is below 500 nM.

On to `OCC(O)CN1CCN(c2ccnc(-c3cnc4ccc(C(F)(F)F)cn34)n2)CC1c1cn[nH]c1` (centres unmarked) [I-352, 3-(2-(1H-pyrazol-4-yl)-4-(2-(6-(trifluoromethyl)imidazo[1,2-a]pyridin-3-yl)pyrimidin-4-yl)piperazin-1-yl)propane-1,2-diol], for which the IC50 was below 10 nM against GCN2 kinase and 500 to 5000 nM in experiment [1] (setting [2]).

As to `CS(=O)(=O)NC1CC(C(F)(F)F)CN(c2ccnc(-c3cnc4ccc(C(F)(F)F)cn34)n2)C1` (centres unmarked) [I-478, N-(5-(trifluoromethyl)-1-(2-(6-(trifluoromethyl)imidazo[1,2-a]pyridin-3-yl)pyrimidin-4-yl)piperidin-3-yl)methanesulfonamide], the IC50 at GCN2 kinase is 10 to 100 nM; in experiment [1] (setting [2]), below 500 nM.

On to `Fc1cc2ncc(-c3nccc(N4CCCC(c5c[nH]cn5)C4)n3)n2cc1Cl` (centres unmarked) [I-57, 6-Chloro-7-fluoro-3-{4-[3-(1H-imidazol-4-yl)-piperidin-1-yl]-pyrimidin-2-yl}-imidazo[1,2-a]pyridine], for which the Ki on GCN2 kinase was in the range of 10 to 100 nM. Also, the IC50 in experiment [1] (setting [2]) lay in the range of 500 to 5000 nM.

As to `C[C@H]1CN(c2ccnc(-c3cnc4ccc(Cl)cn34)n2)C[C@H](c2cn[nH]c2F)O1` (stereo in doubt) [I-175, (2S,6S)-4-(2-(6-chloroimidazo[1,2-a]pyridin-3-yl)pyrimidin-4-yl)-2-(5-fluoro-1H-pyrazol-4-yl)-6-methylmorpholine], the figures for the IC50 (against GCN2 kinase; in experiment [1] (setting [2])) were below 10 nM and below 500 nM, respectively.

For `FC(F)(F)c1ccc2ncc(-c3nccc(N4CCCC(n5cncn5)C4)n3)n2c1` (centres unmarked) [I-356, 3-(4-(3-(1H-1,2,4-triazol-1-yl)piperidin-1-yl)pyrimidin-2-yl)-6-(trifluoromethyl)imidazo[1,2-a]pyridine], the IC50 lay within 10 to 100 nM against GCN2 kinase and 500 to 5000 nM in experiment [1] (setting [2]).

At GCN2 kinase, `Fc1cc2ncc(-c3nccc(N4CCOC(c5cn[nH]c5)C4)n3)n2cc1Cl` (centres unmarked) [I-23, 4-[2-(6-Chloro-7-fluoro-imidazo[1,2-a]pyridin-3-yl)pyrimidin-4-yl]-2-(1H-pyrazol-4-yl)morpholine] displayed a Ki below 10 nM. For the same compound, the IC50 in experiment [1] (setting [2]) is below 500 nM.

`Cc1[nH]ncc1C1CC(F)CN(c2ccnc(-c3cnc4cc(F)c(Cl)cn34)n2)C1` (centres unmarked) [I-426, 6-chloro-7-fluoro-3-(4-(3-fluoro-5-(5-methyl-1H-pyrazol-4-yl)piperidin-1-yl)pyrimidin-2-yl)imidazo[1,2-a]pyridine]: the IC50 lay in the range of 10 to 100 nM against GCN2 kinase and 500 to 5000 nM in experiment [1] (setting [2]).

In the case of `Cc1[nH]ncc1[C@@H]1[C@H](C)N(c2ccnc(-c3cnc4ccc(C(F)(F)F)cn34)n2)CCN1C1COC1` [I-365], the results for the IC50 (at GCN2 kinase; in experiment [1] (setting [2])) were 100 to 1000 nM and 500 to 5000 nM, respectively.

`Cn1cnc(C(=O)N2CCN(c3ccnc(-c4cnc5ccc(C(F)(F)F)cn45)n3)CC2c2cn[nH]c2)c1` (centres unmarked) [I-446, (2-(1H-pyrazol-4-yl)-4-(2-(6-(trifluoromethyl)imidazo[1,2-a]pyridin-3-yl)pyrimidin-4-yl)piperazin-1-yl)(1-methyl-1H-imidazol-4-yl)methanone]: the IC50 against GCN2 kinase fell in the range of 10 to 100 nM; in experiment [1] (setting [2]) it was 500 to 5000 nM.

Consider `CC1CN(c2ccnc(-c3cnc4ccc(Cl)cn34)n2)CC(c2cn[nH]c2)N1` (centres unmarked) [I-266, 6-chloro-3-(4-(3-methyl-5-(1H-pyrazol-4-yl)piperazin-1-yl)pyrimidin-2-yl)imidazo[1,2-a]pyridine], for which the IC50 at GCN2 kinase is below 10 nM; in experiment [1] (setting [2]) it was below 500 nM.

`N#C[C@@H]1CN(c2ccnc(-c3cnc4ccc(C(F)(F)F)cn34)n2)CCO1` [I-232, (S)-4-(2-(6-(trifluoromethyl)imidazo[1,2-a]pyridin-3-yl)pyrimidin-4-yl)morpholine-2-carbonitrile]: the IC50 at GCN2 kinase lay within 100 to 1000 nM; in experiment [1] (setting [2]), 500 to 5000 nM.

Take `C[C@@H]1[C@H](CNS(C)(=O)=O)N(C2CC2)[C@H](C)CN1c1ccnc(-c2cnc3ccc(C(F)(F)F)cn23)n1` (stereo in doubt) [I-494, N-(((2S,3R,6R)-1-cyclopropyl-3,6-dimethyl-4-(2-(6-(trifluoromethyl)imidazo[1,2-a]pyridin-3-yl)pyrimidin-4-yl)piperazin-2-yl)methyl)methanesulfonamide]: the IC50 against GCN2 kinase was in the range of 100 to 1000 nM; in experiment [1] (setting [2]), 500 to 5000 nM.

Regarding `CC1(C)C[C@H]1CN1CCN(c2ccnc(-c3cnc4ccc(C(F)(F)F)cn34)n2)C[C@H]1c1cn[nH]c1` [I-526, 3-(4-((R)-4-(((R)-2,2-dimethylcyclopropyl)methyl)-3-(1H-pyrazol-4-yl)piperazin-1-yl)pyrimidin-2-yl)-6-(trifluoromethyl)imidazo[1,2-a]pyridine], the IC50 is 10 to 100 nM against GCN2 kinase and below 500 nM in experiment [1] (setting [2]).

Consider `FC(F)(F)c1ccc2ncc(-c3nsc(N4CCOC(c5cn[nH]c5)C4)n3)n2c1` (centres unmarked) [I-104, 2-(1H-pyrazol-4-yl)-4-(3-(6-(trifluoromethyl)imidazo[1,2-a]pyridin-3-yl)-1,2,4-thiadiazol-5-yl)morpholine], for which the Ki on GCN2 kinase was 10 to 100 nM. For the same compound, in experiment [1] (setting [2]), the IC50 lay within 500 to 5000 nM.

On to `Fc1ccc(CN2CCN(c3ccnc(-c4cnc5ccc(C(F)(F)F)cn45)n3)CC2c2cn[nH]c2)cc1F` (centres unmarked) [I-450, 3-(4-(4-(3,4-difluorobenzyl)-3-(1H-pyrazol-4-yl)piperazin-1-yl)pyrimidin-2-yl)-6-(trifluoromethyl)imidazo[1,2-a]pyridine], for which the IC50 against GCN2 kinase was 10 to 100 nM; in experiment [1] (setting [2]), below 500 nM.

Turning to `CC1CN(c2ccnc(-c3cnc4ccc(Cl)cn34)n2)CC(c2cnn(S(C)(=O)=O)c2)N1S(C)(=O)=O` (centres unmarked) [I-301, 6-chloro-3-(4-(3-methyl-4-(methylsulfonyl)-5-(1-(methylsulfonyl)-1H-pyrazol-4-yl)piperazin-1-yl)pyrimidin-2-yl)imidazo[1,2-a]pyridine], the figures for the IC50 (at GCN2 kinase; in experiment [1] (setting [2])) were 100 to 1000 nM and 500 to 5000 nM, respectively.

The values are drawn from patent US10793563B2, “GCN2 inhibitors and uses thereof” (Merck Patent GmbH, priority 2018, dated 2020).
